Measurements as given in US20250090545A1, “METHODS AND COMPOSITIONS FOR TREATMENT OF PERIPHERAL NEUROPATHIES” (UNIVERSITY OF MANITOBA, priority 2013, published 2025).

Key:
[1] = target: T1, type 1 muscarinic receptor (M1R) (Homo sapiens, UniProt P11229); conditions: cited from earlier work
T1 sequence (P11229 1-460): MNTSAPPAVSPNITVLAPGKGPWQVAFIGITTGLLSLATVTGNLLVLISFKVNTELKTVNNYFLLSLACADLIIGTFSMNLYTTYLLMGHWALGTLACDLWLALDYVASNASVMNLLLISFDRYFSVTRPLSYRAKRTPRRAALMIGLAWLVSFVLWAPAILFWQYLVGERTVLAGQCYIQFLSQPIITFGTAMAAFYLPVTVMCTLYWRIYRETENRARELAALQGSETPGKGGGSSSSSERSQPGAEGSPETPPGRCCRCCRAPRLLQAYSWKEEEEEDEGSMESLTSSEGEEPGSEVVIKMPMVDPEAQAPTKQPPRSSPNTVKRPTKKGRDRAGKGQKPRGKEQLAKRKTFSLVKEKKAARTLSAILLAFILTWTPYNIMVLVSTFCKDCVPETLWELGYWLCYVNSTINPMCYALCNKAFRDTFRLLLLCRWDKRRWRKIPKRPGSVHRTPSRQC

[2] = tested on: adult sensory neuron cultures from STZ-induced diabetic rats; test: Mitochondrial respiration (OCR) in adult sensory neuron cultures; type: cell-based, rat; conditions: 1 μM for 3 h
Description: Mitochondrial respiration in adult mouse sensory neuron cultures from wild type control mice, M1 receptor knockout mice (M1R KO), and from diabetic mice that received dosing with 1 μM of VU0255035 for 3 h, were assessed following the methods taught by Roy Chowdhury et al. (2012). The M1R knockout mice were a gift from Dr. Jurgen Wess (Molecular Signaling Section, Laboratory of Bioorganic Chemistry, National Institute of Diabetes and Digestive and Kidney Diseases, National Institutes of Health).
This bioenergetics parameter, which is depressed in diabetes, is related to the capacity of cells to conduct respiration under conditions of stress or high ATP demand. In this regard we propose the stress is the presence of high intracellular glucose concentrations.

[3] = tested on: DCA-treated Swiss Webster mice; conditions: pirenzepine 10 mg/kg/day s.c.
Description: Swiss Webster mice were treated with DCA (1 mg/kg/day s.c.) for 8 weeks to induce peripheral neuropathy following the method described for rats by Calcutt et al. (2009, Peripheral neuropathy in rats exposed to dichloroacetate. J. Neuropath. Exp. Neurol. 68:985-93). Some DCA-treated mice were also treated with pirenzepine (Pz: 10 mg/kg/day s.c.) for the duration of the study while others were treated with vehicle alone.

[4] = tested on: PGC-1α; test: PGC-1α transcriptional activity, luciferase reporter in adult sensory neurons; type: cell-based, rat; conditions: 1 μM; neurons from STZ-induced diabetic rats
Description: PGC-1α transcriptional activity was determined in dissociated adult sensory neurons derived from STZ-induced diabetic rats by transfection for two days with luciferase-based reporter plasmids by following the methods taught in the AMAXA® NUCLEOFECTOR® II Manual (www.amaxa.com; AMAX and NUCLEOFECTOR are registered trademarks of Amaxa GmBH Corp., Koln, Fed. Rep. Germany) and by Saleh et al. (2013, Ciliary neurotrophic factor activates NF-κB to enhance mitochondrial bioenergetics and prevent neuropathy in sensory neurons of streptozotocin-induced diabetic rodents. Neuropharmacology 65:65-75) (the luciferase-based reporter plasmids were a gift from Dr. Michael Czubryt, University of Manitoba).

[5] = tested on: paclitaxel-treated Swiss Webster mice; type: in vivo, mouse; conditions: pirenzepine daily s.c. for 4 weeks (10 mg/kg/day, also printed 1 mg/kg/day)
Description: Swiss Webster mice were treated with paclitaxel (taxol; 5 mg/kg on days 1,3,5 and 7) to induce peripheral neuropathy. […] Data points are group mean of n=9-12/group±SEM. Significant differences were determined with a oneway ANOVA followed by Dunnett's post-hoc test.

[6] = tested on: STZ-induced diabetic rats; test: Motor and sensory nerve conduction velocity in STZ-induced diabetic rats; type: in vivo, rat; conditions: 5 mg/kg s.c., 8 weeks; p<0.05 vs vehicle-treated diabetic rats
Description: The STZ rat is a model of type 1 diabetes. Rats were treated with 5 mg/kg (s.c.) pirenzepine for 8 weeks following the method taught by Calcutt et al. (2003, Therapeutic efficacy of sonic hedgehog protein in experimental diabetic neuropathy. J. Clin. Invest. 111:507-514). Nerve conduction velocities (NCV) were determined following the methods taught by Mizisin et al. (2004, Ciliary Neurotrophic Factor Improves Nerve Conduction and Ameliorates Regeneration Deficits in Diabetic Rats. Diabetes 53:1807-12). […] All data are group mean±SEM (N=5-6 group). Statistical analysis by one-way ANOVA with Dunnett's post-hoc test.

[7] = tested on: cultured adult rat sensory neurons; type: cell-based; conditions: 1 μM; gp120 24 hours; P<0.05
Description: To further extend our investigation of the actions of muscarinic receptor antagonists on nerve growth, cultured adult rat sensory neurons were treated for 24 hours with recombinant gp120, an external coat protein of HIV that causes toxicity to sensory neurons in HIV neuropathy (FIG. 24). This toxicity leads to axon degeneration and neuronal cell death. Cultures were treated with 1 μM pirenzpeine and total neurite outgrowth determined. […] Values are means±SEM. n=6.

[8] = tested on: adult sensory neuron cultures derived from STZ-induced diabetic rats; test: Neurite outgrowth in sensory neuron cultures transduced with dominant negative AMPK mutants; type: cell-based, rat; conditions: 1.0 μM pirenzepine; adenovirus dominant negative AMPK mutants AdDN1/AdDN2
Description: Adult sensory neuron cultures derived from STZ-induced diabetic rats were transduced for two days after treatment with 1.0 μM pirenzepine, with two adenovirus over-expressing dominant negative mutants of AMPK, i.e., AMPK subunit α1 and α2 mutants named “AdDN1” and “AdDN2” (the adenovirus over-expressing dominant negative mutants were gifts from Dr. Jason Dyck, University of Alberta) following the procedure taught by Roy Chowdhury et al., (2012).

[9] = tested on: AMP-activated protein kinase (AMPK); test: AMPK phosphorylation (Western blot) in cultured adult sensory neurons; type: cell-based, rat; conditions: 1.0 μM, 15-60 min
Description: Subsets of cultured adult sensory neurons derived from age-matched control rats or 3-5 month STZ-induced diabetic rats were treated with a 1.0 μM pirenzepine-HCl dosage. The first subset was processed immediately while the second, third and fourth subsets of the neurons from the control rats and the diabetic rats were processed after 15 min, after 30 min, and after 60 min respectively following treatment with pirenzepine. The cell cultures were lysed and then used to prepare Western blots which were then probed with antibodies against phosphorylated AMPK (P-AMPK), total AMPK (T-AMPK) and total ERK (T-ERK). […] Values are means±SEM, N=3/group. Statistical significance was analyzed using one-way ANOVA with Tukey's post-hoc test.

[10] = tested on: adult sensory neurons from normal rats; test: Neurite outgrowth of sensory neurons exposed to paclitaxel or oxaliplatin; type: cell-based, rat; conditions: 24 hours, pirenzepine 0.1, 1.0 or 10 μM
Description: Adult sensory neurons from normal rats were cultured for 24 hours in the presence of(A) paclitaxel (PX; 0.1 μM or 0.3 μM), or (B) oxaliplatin (OX; 3.0 μM). From time of plating some cultures were treated with 0.1, 1.0 or 10 μM pirenzepine (PZ). Levels of total neurite outgrowth were determined and presented as means±SEM, N=6-8/group. Significant differences were assessed in(A) by t-test, and in(B) by one-way ANOVA with Dunnett's post-hoc test.

| Structure (SMILES) | selectivity to M1R relative to M2, M3, M4 and M5 receptors [1] | coupling efficiency [2] | oxygen consumption rate (OCR) [2] | respiratory control ratio [2] | spare respiratory capacity ([2]; compared to controls) | depletion of paw skin IENF ([3]; 8 weeks) | paw thermal hypoalgesia ([3]; 8 weeks) | onset of MNCV slowing ([3]; after 4 weeks of exposure) | transcriptional activity of PGC-1α [4] | tactile allodynia (paw 50% tactile response threshold) [5] | thermal hyperalgesia (paw thermal response latency) [5] | motor nerve conduction velocity (MNCV) slowing [6] | sensory nerve conduction velocity (SNCV) slowing [6] | protection from gp120-induced neurite degeneration [7] | pirenzepine-induced neurite outgrowth under blockage of AMPK signaling [8] | P-AMPK level ([9]; cultures from normal (age-matched control) rats) | P-AMPK level ([9]; cultures from type 1 (STZ) diabetic rats) | reduced neurite outgrowth caused by oxaliplatin ([10]; oxaliplatin 3.0 μM) | reduced neurite outgrowth caused by paclitaxel ([10]; paclitaxel 0.1 or 0.3 μM) |
| --- | --- | --- | --- | --- | --- | --- | --- | --- | --- | --- | --- | --- | --- | --- | --- | --- | --- | --- | --- |
| O=C(CCNS(=O)(=O)c1cccc2nsnc12)N1CCN(c2ccncc2)CC1 [VU0255035] | 75 times | not dissimilar | increased | not dissimilar | significantly increased | – | – | – | – | – | – | – | – | – | – | – | – | – | – |
| CN1CCN(CC(=O)N2c3ccccc3C(=O)Nc3cccnc32)CC1 [pirenzepine] | – | – | – | – | – | prevented | prevented | delayed onset | enhanced | prevented | prevented | attenuated | attenuated | complete protection | completely inhibited | significantly activated | significantly activated | prevented | prevented |
